Experimental data as given in patent US11241417B2, “Compositions and methods for the treatment and prevention of neurological disorders” (Yumanity Therapeutics, Inc., priority 2018, dated 2022).
“Also recorded” adds a separate entry of the source.

Experiments:
Assay type in all cases: cell-based
TDP-43-expressing yeast = assay: Yeast TDP-43 model viability (resazurin-reduction endpoint); details: 2-fold serial dilution applied for 24 hours
Experimental: (§1) (FIG. 1A) Structure of the Erg11 inhibitor and anti-fungal, fluconazole. […] A 2-fold serial dilution of fluconazole was applied to TDP-43-expressing yeast for 24 hours prior to analysis. (FIG. 1C) Wild-type yeast cultures were treated with fluconazole for eight hours prior to HPLC analysis for lanosterol and ergosterol. Data are expressed as the area under the curve (AUC) normalized to cell mass based on optical density of cultures at 600 nm.
The toxic gain of function features of TDP-43 can be faithfully recapitulated in the simple model organism, budding yeast, where the protein also localizes to stress granules. […] The yeast model thus provides a robust cell-based screening platform for small molecules capable of ameliorating toxicity. To validate compounds from such phenotypic screens, it is imperative to test compounds in a mammalian neuronal context. In an effort to develop TDP-43-related mammalian models of neuron loss that occurs in ALS and FTD, primary cultures of rat cortical neurons were transfected with human wild type or Q331K mutant TDP-43. These cells were compared to cells which received an empty expression vector control. […] In the experiments described in this example, this model system is used to interrogate new therapeutic approaches to ameliorate TDP-43 toxicity.
Fluconazole is an antifungal known to inhibit Erg11, the yeast lanosterol 14-alpha demethylase (FIG. 1B). […]

Erg11 = assay: HPLC analysis for lanosterol and ergosterol in fluconazole-treated wild-type yeast cultures; details: wild-type yeast cultures treated for eight hours, normalized to optical density at 600 nm
Experimental: as §1
Fluconazole is an antifungal known to inhibit Erg11, the yeast lanosterol 14-alpha demethylase (FIG. 1B). […] CYP51A1 has also been known as lanosterol 14-alpha demethylase, which describes its function in removing the 14-alpha-methyl group from lanosterol to generate 4,4-dimethylcholesta-8(9),14,24-trien-3β-ol, which is a critical step in the cholesterol biosynthetic pathway.

[1] = test system: primary rat cortical neurons transfected with wild-type TDP-43; assay: Survival of primary rat cortical neurons transfected with wild-type TDP-43; details: rat primary cortical neurons co-transfected with RFP and wild-type human TDP-43; titration of compound; cox regression
Experimental: (§2) Rat primary cortical neurons were co-transfected with a red fluorescent protein (RFP) as a morphological marker and either control (empty vector) or wild-type TDP-43 expression plasmids and treated with vehicle (DMSO) or a titration of compound (3). (FIG. 3A) Risk of neuron death plots. The lifetime of each neuron was determined by either loss of RFP signal or morphological indicators of death such as loss of neurites and cell blebbing and used to generate cumulative hazard plots of risk of death over time (hrs) post-transfection. (FIG. 3B) Forest plots. Hazard ratios for each treatment group (relative to TDP-43 DMSO group) were determined by cox regression analysis and used to generate forest plots. […] P, p-value.
Rat primary cortical neurons were co-transfected with a red fluorescent protein (RFP) as a morphological marker and either control (empty vector) or wild type TDP-43 expression plasmids and treated with vehicle (DMSO) or a titration of compound (4). […] The lifetime of each neuron was determined by either loss of RFP signal or morphological indicators of death such as loss of neurites and cell blebbing and used to generate cumulative hazard plots of risk of death over time (hrs) post-transfection. […] Hazard ratios for each treatment group (relative to TDP-43 DMSO group) were determined by cox regression analysis and used to generate forest plots. […]

[2] = test system: primary rat cortical neurons transfected with Q331K Mutant TDP-43; assay: Survival of primary rat cortical neurons transfected with Q331K mutant TDP-43; details: rat primary cortical neurons co-transfected with RFP and Q331K mutant TDP-43; titration of compound; cox regression
Experimental: as §2, with “Q331K mutant” for “wild-type”, “4A)” for “3A)”, “4B)” for “3B)”
The toxic gain of function features of TDP-43 can be faithfully recapitulated in the simple model organism, budding yeast, where the protein also localizes to stress granules. […] The yeast model thus provides a robust cell-based screening platform for small molecules capable of ameliorating toxicity. To validate compounds from such phenotypic screens, it is imperative to test compounds in a mammalian neuronal context. In an effort to develop TDP-43-related mammalian models of neuron loss that occurs in ALS and FTD, primary cultures of rat cortical neurons were transfected with human wild type or Q331K mutant TDP-43. […]

Row | Compound | viability of TDP-43-expressing yeast (TDP-43-expressing yeast) | ergosterol (AUC normalized to cell mass) (Erg11) | lanosterol (AUC normalized to cell mass) (Erg11) | neuron survival (risk of neuron death, hazard ratio relative to TDP-43 DMSO group) [1] | neuron survival (risk of neuron death, hazard ratio relative to TDP-43 DMSO group) [2]
1 | OC(Cn1cncn1)(Cn1cncn1)c1ccc(F)cc1F [Fluconazole] | restored viability; also recorded: rescues viability | reduces ergosterol | increase in the Erg11 substrate, lanosterol | – | –
2 | CCCN(CCc1ccc(Cl)c(Cl)c1)CC(O)c1cccnc1 (stereo not drawn) [compound (3)] | – | – | – | reduction in survival was partially alleviated; also recorded: promotes survival | promotes survival
3 | O=C(N[C@@H](Cc1ccc(F)cc1)C(=O)N1CCC(O)CC1)c1cc2cc(Cl)ccc2[nH]1 [compound (4)] | – | – | – | promotes survival | –
